# Results from US20240209011A1, “HETEROAROMATIC PHOSPHONIUM SALTS FOR TREATING CANCER” (FLORATEK PHARMA S.A., priority 2021, published 2024).
# Assays:
# Type in all cases: cell-based
# breast cancer cell = assay: Activity against breast cancer cells; conditions: breast cancer cell growth; Tables 5A and B
# Experimental: (§1) Antitumor activity of the compounds and doxorubicin as a positive control was assessed by using the CellTiter-Blue Cell Viability Assay (Promega, #G8082) or CellTiter-Glow® Luminescent Cell Viability assay (Promega #G7572) according to the manufacturer's instructions. The compounds were tested at 5 or 6 concentrations in half-log increments (highest concentration 30 μM or 100 μM) in duplicate or triplicate well conditions.
# (§2) Tumor cells were grown at 37° C. in a humidified atmosphere with 5% CO2 in RPMI 1640 or DMEM medium, supplemented with 10% (v/v) fetal calf serum and 50 μg/ml gentamicin for up to 20 passages, and were passaged once or twice weekly. Cells were harvested using TrypLE or PBS buffer containing 1 mM EDTA, and the percentage of viable cells is determined using a CASY Model TI cell counter (OMNI Life Science). Cells were harvested from exponential phase cultures, counted and plated in 96 well flat-bottom microtiter plates at a cell density depending on the cell line's growth rate (4,000-20,000 cells/well depending on the cell line's growth rate, up to 60,000 for hematological cancer cell lines) in RPMI 1640 or DMEM medium supplemented with 10% (v/v) fetal calf serum and 50 μg/ml gentamicin (140 μl/well). Cultures were incubated at 37° C. and 5% CO2 in a humidified atmosphere. After 24 h, 10 μl of test compounds or control medium were added, and left on the cells for another 72 h. Compounds were serially diluted in DMSO, transferred in cell culture medium, and added to the assay plates. The DMSO concentration was kept constant at <0.3% v/v across the assay plate. Viability of cells was quantified by the CellTiter-Blue® cell viability assay (Promega G8081) or CellTiter-Glow® Luminescent Cell Viability assay (Promega #G7572). Fluorescence (FU) was measured by using the EnSpire® multimode plate reader (Perkin Elmer) (excitation X=570 nm, emission λ=600 nm). Luminescence was measured with a microplate luminometer (Promega or PerkinElmer).
# (§3) Sigmoidal concentration-response curves were fitted to the data points (test-versus-control, T/C values) obtained for each tumor model using 4 parameter non-linear curve fit (Charles River DRS Datawarehouse Software) or with GraphPad prism 5.02 software. IC50 values are reported as absolute IC50 values, being the concentration of test compound at the intersection of the concentration-response curves with T/C=50% Cell lines tested are presented in Table 1.
# colon cancer cell = assay: Activity against colon cancer cells; conditions: colon cancer cell growth; summary of Tables 7A-7D
# Experimental: as §1, §2, §3
# leukaemia cell = assay: Activity against leukaemia cells; conditions: leukaemia cell growth; Tables 13A and 13B
# Experimental: as §1, §2, §3
# 22Rv1 = assay: Cell viability assay (CellTiter-Blue/CellTiter-Glow); conditions: Homo sapiens; prostate carcinoma cell line 22Rv1; absolute IC50; 72 h
# Experimental: as §1, §2, §3
# HCT-116 = assay: as above; conditions: Homo sapiens; colon carcinoma cell line HCT-116; absolute IC50; 72 h
# Experimental: as §1, §2, §3
# HL-60 = assay: as above; conditions: Homo sapiens; leukaemia cell line HL-60; absolute IC50; 72 h
# Experimental: as §1, §2, §3
# LNCaP = assay: as above; conditions: Homo sapiens; prostate carcinoma cell line LNCaP; absolute IC50; 72 h
# Experimental: as §1, §2, §3
# LoVo = assay: as above; conditions: Homo sapiens; colon carcinoma cell line LoVo; absolute IC50; 72 h
# Experimental: as §1, §2, §3
# MCF-7 = assay: as above; conditions: Homo sapiens, MCF7; breast carcinoma cell line MCF-7; absolute IC50; 72 h
# Experimental: as §1, §2, §3
# MDA-MB-468 = assay: as above; conditions: Homo sapiens; breast carcinoma cell line MDA-MB-468; absolute IC50; 72 h
# Experimental: as §1, §2, §3
# PC-3 = assay: as above; conditions: Homo sapiens; prostate carcinoma cell line PC-3; absolute IC50; 72 h
# Experimental: as §1, §2, §3
# parental H69 cells = assay: as above; conditions: Homo sapiens, NCI-H69; SCLC parental H69 cells
# Experimental: as §1, §2, §3
# prostate cancer cell = assay: Activity against prostate cancer cells; conditions: prostate cancer cell growth; text summary of Table 21
# Experimental: as §1, §2, §3
structure (smiles),measurement,setting,value
"O=c1cc(-c2ccc(CCC[P+](c3ccccc3)(c3ccccc3)c3ccccc3)cc2)oc2c(O)c(O)ccc12 [SND176, (3-(4-(7,8-Dihydroxy-4-oxo-4H-chromen-2-yl)phenyl)propyl)triphenylphosphonium bromide]",IC50,breast cancer cell,< 20 µM
same,IC50,colon cancer cell,< 20 µM
same,IC50,leukaemia cell,< 20 µM
same,IC50,22Rv1,8.18 µM
same,IC50,HCT-116,8.68 µM
same,IC50,HL-60,1.43 µM
same,IC50,LNCaP,3.66 µM
same,IC50,LoVo,8.6 µM
same,IC50,MCF-7,18.3 µM
same,IC50,MDA-MB-468,1.42 µM
same,IC50,PC-3,7.3 µM
same,IC50,parental H69 cells,7 µM
same,IC50,prostate cancer cell,< 10 µM
